Five compounds from US6620839B2, “1,3-disubstituted and 1,3,3-trisubstituted pyrrolidines as histamine-3 receptor ligands and their therapeutic applications” (Abbott Laboratories, priority 2000, dated 2003) can be followed below.

As a reminder, the Ki is the dissociation constant of the complex between target and ligand, obtained from inhibition or displacement. Read a high Ki as lower affinity.

T1 sequence (Q9QYN8 whole entry): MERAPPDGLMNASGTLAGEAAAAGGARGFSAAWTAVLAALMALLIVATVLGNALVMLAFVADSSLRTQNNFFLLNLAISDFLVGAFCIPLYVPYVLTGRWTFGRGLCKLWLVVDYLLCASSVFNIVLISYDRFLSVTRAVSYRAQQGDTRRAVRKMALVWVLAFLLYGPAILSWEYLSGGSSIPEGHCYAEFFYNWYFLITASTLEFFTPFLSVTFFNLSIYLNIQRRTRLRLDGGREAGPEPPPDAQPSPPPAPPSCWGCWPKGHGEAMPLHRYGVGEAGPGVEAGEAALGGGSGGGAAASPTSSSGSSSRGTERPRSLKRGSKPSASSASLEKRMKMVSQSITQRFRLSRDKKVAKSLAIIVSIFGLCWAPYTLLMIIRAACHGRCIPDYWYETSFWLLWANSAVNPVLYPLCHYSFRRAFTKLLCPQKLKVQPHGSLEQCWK

This test has as its target T1, histamine-3 receptor (Rattus norvegicus, UniProt Q9QYN8).
T1 construct: from tissue; host or cells: male Sprague-Dawley rat brain cortex membranes
Kind of test: Histamine-3 receptor binding, (3H)-N-α-methylhistamine displacement in rat cortical membranes. The note with it: male Sprague-Dawley rat brain cortical membranes; (3H)-N-α-methylhistamine ~0.6 nM; 30 minutes at 25° C.; Cheng-Prusoff. An outline of the steps: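 Male Sprague-Dawley rat cortical membranes incubated 30 min at 25 °C with compound dilutions and [3H]-N-α-methylhistamine. Nonspecific binding defined with 3 μM thioperamide. Filtration and scintillation counting used; Ki from Hill transformation and Cheng-Prusoff equation.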
For the compound `CN(C)[C@@H]1CCN(CCCOc2c(F)cc(-c3ccc(C#N)cc3)cc2Cl)C1` [Example 174, 3′-chloro-4′-{3-[(3R)-3-(dimethylamino)-1-pyrrolidinyl]propoxy}-5′-fluoro-1,1′-biphenyl-4-carbonitrile], the Ki was found to be 0.014 µM.
As for `N#Cc1ccc(-c2ccc(OCCCN3CC[C@@H](NS(=O)(=O)c4ccc(C(F)(F)F)cc4)C3)cc2)cc1` [Example 23], affinity was put at a Ki of 0.033 µM. Compared with the last compound, the Ki is about 2.4-fold higher.
Compound `COc1ccc(S(=O)(=O)N[C@@H]2CCN(CCCOc3ccc(-c4ccccn4)cc3)C2)cc1OC` [Example 106, 3,4-dimethoxy-N-((3R)-1-{3-[4-(2-pyridinyl)phenoxy]propyl}pyrrolidinyl)benzenesulfonamide] yielded an inhibitory constant (Ki) of 0.168 µM.
With `CC(C)(C)NC(=O)N[C@@H]1CCN(CCCOc2ccc(-c3ccc(C#N)cc3)cc2)C1` [Example 137, N-(tert-butyl)-N′-((3R)-1-{3-[(4′-cyano[1,1′-biphenyl]-4-yl)oxy]propyl}pyrrolidinyl)urea] the figure was 0.196 µM; with `CC(=O)Nc1ccc(S(=O)(=O)N[C@@H]2CCN(CCCOc3ccc(-c4ccc(C#N)cc4)cc3)C2)cc1Cl` [Example 53, N-(2-chloro-4-{[((3R)-1-{3-[(4′-cyano[1,1′-biphenyl]-4-yl)oxy]propyl}pyrrolidinyl)amino]sulfonyl}phenyl)acetamide], 0.0039 µM.
